Test results published in publication PMC8222254, “Self-assembly of an anion receptor with metal-dependent kinase inhibition and potent in vitro anti-cancer properties” (Nature Communications, 2021).
Values joined by “and” are separate entries in the source; they are usually repeats but may differ in a detail not shown here. Identical values can stand only once.

What was measured:
Assay in all cases: Kinase inhibition screen, cell-free 33P ATP assay at 10 μM
Assay type in all cases: biochemical
[1] = target: T1, 140 purified human kinases (Homo sapiens, UniProt O14757)
T1 sequence (O14757 1-476): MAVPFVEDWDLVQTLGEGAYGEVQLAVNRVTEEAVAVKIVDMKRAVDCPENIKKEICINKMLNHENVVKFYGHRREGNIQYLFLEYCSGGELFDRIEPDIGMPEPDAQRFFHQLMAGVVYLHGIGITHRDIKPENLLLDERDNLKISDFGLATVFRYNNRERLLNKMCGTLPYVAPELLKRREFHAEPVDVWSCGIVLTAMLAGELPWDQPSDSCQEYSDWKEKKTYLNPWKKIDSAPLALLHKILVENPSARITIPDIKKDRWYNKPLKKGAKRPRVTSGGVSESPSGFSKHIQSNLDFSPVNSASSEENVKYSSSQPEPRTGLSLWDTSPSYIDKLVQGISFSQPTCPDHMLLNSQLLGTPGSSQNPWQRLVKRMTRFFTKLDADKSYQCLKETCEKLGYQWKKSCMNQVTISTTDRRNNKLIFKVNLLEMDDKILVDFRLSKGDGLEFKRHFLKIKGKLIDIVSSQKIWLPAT
In short: (§1)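 Each complex tested in duplicate at 10 μM; cell-free radiometric assay using ^33P ATP on purified enzymes. Hits mapped by HGNC symbol onto the kinome tree.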

[2] = target: 140 purified human kinases (Homo sapiens, UniProt O43353)
In short: as §1

[3] = target: 140 purified human kinases (Homo sapiens, UniProt Q16584)
In short: as §1

[4] = target: T2, 140 purified human kinases (Homo sapiens, UniProt P51955); conditions: NEK2a
T2 sequence (P51955 1-445): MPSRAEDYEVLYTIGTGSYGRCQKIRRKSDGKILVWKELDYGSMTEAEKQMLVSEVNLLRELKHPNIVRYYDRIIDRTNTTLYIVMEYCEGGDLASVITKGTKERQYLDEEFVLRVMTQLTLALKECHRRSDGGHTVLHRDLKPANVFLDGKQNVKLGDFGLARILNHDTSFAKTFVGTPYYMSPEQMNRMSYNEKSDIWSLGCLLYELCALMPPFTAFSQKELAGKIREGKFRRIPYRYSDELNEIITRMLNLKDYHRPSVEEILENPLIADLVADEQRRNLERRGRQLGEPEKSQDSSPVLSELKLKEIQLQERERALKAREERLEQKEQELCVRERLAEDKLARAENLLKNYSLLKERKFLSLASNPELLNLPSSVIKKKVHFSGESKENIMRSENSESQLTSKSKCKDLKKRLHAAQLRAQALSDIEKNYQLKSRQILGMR
In short: as §1

[5] = target: T3, 140 purified human kinases (Homo sapiens, UniProt P54760)
T3 sequence (P54760 16-987): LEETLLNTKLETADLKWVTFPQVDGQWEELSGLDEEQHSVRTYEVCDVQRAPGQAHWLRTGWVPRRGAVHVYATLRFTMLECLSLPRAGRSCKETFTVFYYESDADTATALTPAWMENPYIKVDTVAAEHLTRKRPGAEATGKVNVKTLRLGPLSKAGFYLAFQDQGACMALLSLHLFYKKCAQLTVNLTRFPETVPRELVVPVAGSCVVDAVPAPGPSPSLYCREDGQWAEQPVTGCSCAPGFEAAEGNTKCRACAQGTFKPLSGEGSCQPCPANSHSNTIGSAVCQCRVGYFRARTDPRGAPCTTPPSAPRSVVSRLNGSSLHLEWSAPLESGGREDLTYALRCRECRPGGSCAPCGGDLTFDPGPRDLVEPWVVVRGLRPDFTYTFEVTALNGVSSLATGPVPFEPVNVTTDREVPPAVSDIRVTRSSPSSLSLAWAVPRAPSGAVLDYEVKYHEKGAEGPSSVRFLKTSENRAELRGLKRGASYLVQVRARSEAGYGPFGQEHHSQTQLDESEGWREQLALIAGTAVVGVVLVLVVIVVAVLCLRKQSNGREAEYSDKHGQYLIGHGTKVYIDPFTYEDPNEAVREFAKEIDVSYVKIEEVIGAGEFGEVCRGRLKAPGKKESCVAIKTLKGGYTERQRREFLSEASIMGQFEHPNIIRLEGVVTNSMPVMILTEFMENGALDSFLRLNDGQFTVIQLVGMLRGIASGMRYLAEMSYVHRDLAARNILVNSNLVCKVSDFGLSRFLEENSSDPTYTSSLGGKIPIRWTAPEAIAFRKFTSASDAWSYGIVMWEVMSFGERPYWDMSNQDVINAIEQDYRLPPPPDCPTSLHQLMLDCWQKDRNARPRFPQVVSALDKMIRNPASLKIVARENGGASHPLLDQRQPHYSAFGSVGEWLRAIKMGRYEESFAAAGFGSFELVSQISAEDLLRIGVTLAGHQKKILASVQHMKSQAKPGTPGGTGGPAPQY
In short: as §1

Sequence of 140 purified human kinases (Homo sapiens, UniProt Q16584) (Q16584 whole entry): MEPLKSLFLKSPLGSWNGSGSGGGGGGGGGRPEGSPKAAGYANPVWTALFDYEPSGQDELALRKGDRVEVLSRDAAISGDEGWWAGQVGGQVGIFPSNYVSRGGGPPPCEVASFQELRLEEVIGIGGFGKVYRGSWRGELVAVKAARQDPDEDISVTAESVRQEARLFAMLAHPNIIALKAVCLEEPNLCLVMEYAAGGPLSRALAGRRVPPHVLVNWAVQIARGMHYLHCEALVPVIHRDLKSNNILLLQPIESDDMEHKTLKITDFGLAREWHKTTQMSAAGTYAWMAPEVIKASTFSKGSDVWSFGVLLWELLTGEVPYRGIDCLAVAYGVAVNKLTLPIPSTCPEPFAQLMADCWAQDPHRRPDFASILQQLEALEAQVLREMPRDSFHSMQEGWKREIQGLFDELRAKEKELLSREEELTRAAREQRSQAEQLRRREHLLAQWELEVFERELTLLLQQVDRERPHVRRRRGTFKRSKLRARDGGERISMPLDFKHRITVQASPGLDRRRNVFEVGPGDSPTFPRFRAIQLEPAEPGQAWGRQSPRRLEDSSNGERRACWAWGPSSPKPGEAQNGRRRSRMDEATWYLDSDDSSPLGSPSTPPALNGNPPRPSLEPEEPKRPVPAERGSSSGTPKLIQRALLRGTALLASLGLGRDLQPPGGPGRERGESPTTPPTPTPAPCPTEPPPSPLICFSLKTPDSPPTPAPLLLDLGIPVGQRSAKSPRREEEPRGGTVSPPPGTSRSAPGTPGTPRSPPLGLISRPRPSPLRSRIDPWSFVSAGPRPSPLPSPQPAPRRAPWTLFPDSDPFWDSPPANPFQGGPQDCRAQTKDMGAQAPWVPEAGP
Sequence of 140 purified human kinases (Homo sapiens, UniProt O43353) (O43353 whole entry): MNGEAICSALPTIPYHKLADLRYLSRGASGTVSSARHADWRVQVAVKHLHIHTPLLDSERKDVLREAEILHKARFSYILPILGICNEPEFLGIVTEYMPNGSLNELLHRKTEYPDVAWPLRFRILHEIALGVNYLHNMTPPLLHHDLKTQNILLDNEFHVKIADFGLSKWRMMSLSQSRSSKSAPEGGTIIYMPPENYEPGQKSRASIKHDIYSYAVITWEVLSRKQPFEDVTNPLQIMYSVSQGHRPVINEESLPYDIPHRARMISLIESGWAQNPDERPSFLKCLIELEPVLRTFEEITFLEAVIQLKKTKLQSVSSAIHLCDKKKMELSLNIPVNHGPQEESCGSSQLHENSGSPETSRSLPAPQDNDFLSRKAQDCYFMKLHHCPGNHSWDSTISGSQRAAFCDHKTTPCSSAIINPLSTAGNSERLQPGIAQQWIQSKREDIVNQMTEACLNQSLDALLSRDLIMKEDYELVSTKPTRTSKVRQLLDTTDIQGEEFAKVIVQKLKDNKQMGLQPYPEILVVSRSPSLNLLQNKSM

SMILES: [Cu+2].[Cu+2].[Cu+2].c1ccc(-c2csc(NCCN(CCNc3nc(-c4ccccn4)cs3)CCNc3nc(-c4ccccn4)cs3)n2)nc1.c1ccc(-c2csc(NCCN(CCNc3nc(-c4ccccn4)cs3)CCNc3nc(-c4ccccn4)cs3)n2)nc1 [[L2Cu3]6+]
- % Inhibition Run 1 ([1]; CHK1): 45.6%
- % Inhibition Run 2 ([1]; CHK1): 41.5%
- % Inhibition, Mean ([1]; CHK1): 44%
- mean % activity ([1]; CHK1): 56%
- % activity ([1]; CHK1, Run 1): 54.4%
- % activity ([1]; CHK1, Run 2): 58.5%
- % Inhibition Run 1 ([2]; RIPK2): 16.3%
- % Inhibition Run 2 ([2]; RIPK2): 2.5%
- % Inhibition, Mean ([2]; RIPK2): 9%
- mean % activity ([2]; RIPK2): 91%
- % activity ([2]; RIPK2, Run 1): 83.7%
- % activity ([2]; RIPK2, Run 2): 97.5%
- % Inhibition Run 1 ([3]; MLK3): 94.9%
- % Inhibition Run 2 ([3]; MLK3): 94.9%
- % Inhibition, Mean ([3]; MLK3): 95%
- mean % activity ([3]; MLK3): 5%
- % activity ([3]; MLK3, Run 1): 5.1%
- % activity ([3]; MLK3, Run 2): 5.1%
- % Activity inhibition Mean ([3]; MLK3, 10 µM): 94.9%
- % Activity inhibition Run 1 ([3]; MLK3, 10 µM): 94.9%
- % Activity inhibition Run 2 ([3]; MLK3, 10 µM): 94.9%
- % Activity remaining Run 1 ([3]; MLK3, 10 µM): 5.10%
- % Activity remaining Run 2 ([3]; MLK3, 10 µM): 5.10%
- % Inhibition Run 1 [4]: 94.1%
- % Inhibition Run 2 [4]: 94%
- % Inhibition, Mean [4]: 94%
- mean % activity [4]: 6%
- % activity ([4]; Run 1): 5.9%
- % activity ([4]; Run 2): 6%
- % Activity inhibition Mean ([4]; 10 µM): 94.1%
- % Activity inhibition Run 1 ([4]; 10 µM): 94.1%
- % Activity inhibition Run 2 ([4]; 10 µM): 94%
- % Activity remaining Run 1 ([4]; 10 µM): 5.90%
- % Activity remaining Run 2 ([4]; 10 µM): 6.00%
- % Inhibition Run 1 ([5]; EPH-B4): 53.6%
- % Inhibition Run 2 ([5]; EPH-B4): 47.1%
- % Inhibition, Mean ([5]; EPH-B4): 50%
- mean % activity ([5]; EPH-B4): 50%
- % activity ([5]; EPH-B4, Run 1): 46.4%
- % activity ([5]; EPH-B4, Run 2): 52.9%

SMILES: CC(=O)[O-].CC(=O)[O-].CC(=O)[O-].CC(=O)[O-].CC(=O)[O-].CC(=O)[O-].[Zn+2].[Zn+2].[Zn+2].c1ccc(-c2csc(NCCN(CCNc3nc(-c4ccccn4)cs3)CCNc3nc(-c4ccccn4)cs3)n2)nc1.c1ccc(-c2csc(NCCN(CCNc3nc(-c4ccccn4)cs3)CCNc3nc(-c4ccccn4)cs3)n2)nc1 [[L2Zn3]6+]
- % Inhibition, Mean ([1]; CHK1): 17%
- % Inhibition, Run 1 / Run 2 ([1]; CHK1): 18% and 16%
- mean % activity ([1]; CHK1): 83%
- % activity ([1]; CHK1, duplicate runs): 82% and 84%
- % Inhibition, Mean ([2]; RIPK2): 5.55%
- % Inhibition, Run 1 / Run 2 ([2]; RIPK2): 8% and 3%
- mean % activity ([2]; RIPK2): 94%
- % activity ([2]; RIPK2, duplicate runs): 92% and 97%
- % Inhibition, Mean ([3]; MLK3): 5%
- % Inhibition, Run 1 / Run 2 ([3]; MLK3): 4% and 6%
- mean % activity ([3]; MLK3): 95%
- % activity ([3]; MLK3, duplicate runs): 96% and 94%
- % Inhibition, Mean [4]: 30%
- mean % activity [4]: 70%
- % activity ([4]; duplicate runs): 58% and 82%
- % Inhibition, Mean ([5]; EPH-B4): 52%
- % Inhibition, Run 1 / Run 2 ([5]; EPH-B4): 52%
- mean % activity ([5]; EPH-B4): 48%
- % activity ([5]; EPH-B4, duplicate runs): 48%
